Measured values published in paper PMC4047093, “Structural Insights into SraP-Mediated Staphylococcus aureus Adhesion to Host Cells” (PLoS Pathogens, 2014).

Assays:
L-lectin module of SraP = L-lectin module of SraP (Staphylococcus aureus, UniProt Q2FUW1); test: SPR (Biacore […]), steady state, […] Langmuir fit; type: binding; conditions: 10 mM HEPES pH 7.5, 150 mM NaCl, 0.005% Tween 20, 25 °C; protein immobilised on CM5 chip; Neu5Ac 0.12-10 mM
[1] = molecular target: the molecule itself; test: SEC; Superdex 75 column, CDHL-1&2 against protein markers of 67, 44, 25, 17 and 13.7 kDa

Sequence of L-lectin module of SraP (Q2FUW1 245-491): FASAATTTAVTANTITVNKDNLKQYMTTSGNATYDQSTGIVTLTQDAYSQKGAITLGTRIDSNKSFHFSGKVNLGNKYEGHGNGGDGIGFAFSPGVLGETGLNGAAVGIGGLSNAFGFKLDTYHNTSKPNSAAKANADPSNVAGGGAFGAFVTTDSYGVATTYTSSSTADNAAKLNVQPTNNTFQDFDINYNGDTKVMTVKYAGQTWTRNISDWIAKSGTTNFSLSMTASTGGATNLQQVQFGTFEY

Molecule	Kd (L-lectin module of SraP) [µM]	stoichiometry N [1]
CC(=O)N[C@H]1[C@H]([C@H](O)[C@H](O)CO)OC(O)(C(=O)O)C[C@@H]1O (some centres unmarked) [N-acetylneuraminic acid]	540	–
CDHL-1&2 (tandem cadherin-like modules of SraP, Ala576–Asn751) (domain or fragment, modules CDHL-1 and CDHL-2, residues Ala576–Asn751; Lacks the two Ca-2 coordinating residues Asp573 and Lys575; also called CDHL-1&2 modules; tandem CDHL modules; source: E. coli BL21, purified (Ni-NTA, Superdex 200 or Superdex 75)) APTVTVGNQTIEVGKTMNPIVLTTTDNGTGTVTNTVTGLPSGLSYDSATNSIIGTPTKIGQSTVTVVSTDQANNKSTTTFTINVVDTTAPTVTPIGDQSSEVYSPISPIKIATQDNSGNAVTNTVTGLPSGLTFDSTNNTISGTPTNIGTSTISIVSTDASGNKTTTTFKYEVTRN	–	2
